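Cultured in 96-well plates, cells were exposed to test compound for 48 hours across five concentrations. Here, GI50 denotes the concentration required for 50% inhibition of growth.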 Active and inactive are the calls of the source. Rule as the data show it: active = GI50 up to about 1.1 µM and inactive = higher.
What was measured:
Assay in all cases: NCI anticancer screen, dose series, 48 h
[1] = system: A498
[2] = system: ACHN
[3] = system: CAKI-1
[4] = system: HCC 2998
[5] = system: IGROV-1
[6] = system: M14
[7] = system: NCI-H226
[8] = system: NCI-H460
[9] = system: OVCAR-8
[10] = system: RXF 393
[11] = system: SF-539
[12] = system: SK-OV-3
[13] = system: SNB-75
[14] = system: SW-620
[15] = system: UO-31
[16] = system: Hs-578T
[17] = system: MDA-MB-231
[18] = system: NCI/ADR-RES
[19] = system: PC-3

Row | Structure (SMILES) | GI50 [1] | GI50 [2] | GI50 [3] | GI50 [4] | GI50 [5] | GI50 [6] | GI50 [7] | GI50 [8] | GI50 [9] | GI50 [10] | GI50 [11] | GI50 [12] | GI50 [13] | GI50 [14] | GI50 [15] | GI50 [16] | GI50 [17] | GI50 [18] | GI50 [19]
1 | O=C(NCO)NCOCn1c(=O)n(CO)c(=O)n(CO)c1=O | > 100 µM (inactive) | 49.1 µM (inactive) | 40.6 µM (inactive) | > 100 µM (inactive) | > 100 µM (inactive) | 17.1 µM (inactive) | > 100 µM (inactive) | 33.1 µM (inactive) | 32.9 µM (inactive) | 15.2 µM (inactive) | > 100 µM (inactive) | 99.8 µM (inactive) | 35.8 µM (inactive) | 21.3 µM (inactive) | > 100 µM (inactive) | – | – | – | –
2 | CCN(CC)C(=S)N/N=C1\C(=O)Nc2ccccc21 | 1.25 µM (inactive) | 0.42 µM (active) | 0.895 µM (active) | – | 0.239 µM (active) | 0.586 µM (active) | 0.59 µM (active) | 0.406 µM (active) | 0.813 µM (active) | 1.3 µM (inactive) | 0.468 µM (active) | 3.05 µM (inactive) | 1.31 µM (inactive) | 0.493 µM (active) | – | 0.771 µM (active) | 1.14 µM (inactive) | 0.152 µM (active) | 0.334 µM (active)
3 | N/N=C1N=C(Cl)/C(=C/c2ccco2)N\1 | > 100 µM (inactive) | 50.4 µM (inactive) | 48.6 µM (inactive) | 27.6 µM (inactive) | 42.4 µM (inactive) | 35.2 µM (inactive) | > 100 µM (inactive) | – | 44.5 µM (inactive) | 65.2 µM (inactive) | 22.4 µM (inactive) | 76 µM (inactive) | 32.7 µM (inactive) | 41.5 µM (inactive) | 43.1 µM (inactive) | 41.3 µM (inactive) | > 100 µM (inactive) | 44.5 µM (inactive) | 36.7 µM (inactive)
4 | CN(C)Cc1cc(C(C)(C)C)cc(C2CCCCC2)c1O | – | 15.5 µM (inactive) | 19.9 µM (inactive) | – | 18.8 µM (inactive) | 24.6 µM (inactive) | 15.7 µM (inactive) | 19.1 µM (inactive) | 13 µM (inactive) | 12.6 µM (inactive) | 10.9 µM (inactive) | 15 µM (inactive) | 10.3 µM (inactive) | 16.6 µM (inactive) | 17.7 µM (inactive) | 16.6 µM (inactive) | 13.8 µM (inactive) | 19.6 µM (inactive) | 13.6 µM (inactive)
5 | CCOC(=O)NC(NC1=NCCS1)(C(=O)OCC)C(F)(F)F (stereo not given) | > 100 µM (inactive) | > 100 µM (inactive) | > 100 µM (inactive) | > 100 µM (inactive) | > 100 µM (inactive) | > 100 µM (inactive) | > 100 µM (inactive) | > 100 µM (inactive) | > 100 µM (inactive) | > 100 µM (inactive) | > 100 µM (inactive) | > 100 µM (inactive) | > 100 µM (inactive) | > 100 µM (inactive) | > 100 µM (inactive) | > 100 µM (inactive) | > 100 µM (inactive) | > 100 µM (inactive) | > 100 µM (inactive)
6 | O=C1NC(=S)NC(=O)C1=Cc1ccc2ccccc2n1 | > 100 µM (inactive) | > 100 µM (inactive) | > 100 µM (inactive) | > 100 µM (inactive) | > 100 µM (inactive) | > 100 µM (inactive) | > 100 µM (inactive) | > 100 µM (inactive) | > 100 µM (inactive) | > 100 µM (inactive) | > 100 µM (inactive) | > 100 µM (inactive) | > 100 µM (inactive) | > 100 µM (inactive) | > 100 µM (inactive) | – | – | – | –
7 | CCOC(=O)N(C)C1(c2ccccc2)CCN(CCCC(=O)c2ccc(F)cc2)CC1 | 36.5 µM (inactive) | 84.1 µM (inactive) | 2.16 µM (inactive) | 21 µM (inactive) | > 100 µM (inactive) | 17.2 µM (inactive) | 35.4 µM (inactive) | 35.5 µM (inactive) | > 100 µM (inactive) | 57.8 µM (inactive) | 28.6 µM (inactive) | > 100 µM (inactive) | – | 0.349 µM (active) | 0.0148 µM (active) | 49 µM (inactive) | 39.4 µM (inactive) | 47.8 µM (inactive) | 36.8 µM (inactive)
8 | Cc1cc2nc(O)c(CCC(=O)O)nc2cc1C | > 100 µM (inactive) | > 100 µM (inactive) | > 100 µM (inactive) | > 100 µM (inactive) | > 100 µM (inactive) | > 100 µM (inactive) | > 100 µM (inactive) | > 100 µM (inactive) | > 100 µM (inactive) | > 100 µM (inactive) | > 100 µM (inactive) | > 100 µM (inactive) | > 100 µM (inactive) | – | > 100 µM (inactive) | – | – | – | –
9 | CC(C)CCC[C@@H](C)C1CCC2[C@@H]3CC=C4C[C@@H](C(=O)NCC[N+](C)(C)CCCS(=O)(=O)[O-])CC[C@]4(C)C3CC[C@@]21C (stereo not given in full) | > 10 µM (inactive) | 18.5 µM (inactive) | 14.2 µM (inactive) | 19.8 µM (inactive) | 17.3 µM (inactive) | 17.2 µM (inactive) | 21.2 µM (inactive) | 15.7 µM (inactive) | 18.8 µM (inactive) | 20.9 µM (inactive) | 21.3 µM (inactive) | 16.8 µM (inactive) | 20.2 µM (inactive) | 16.6 µM (inactive) | 19.8 µM (inactive) | – | – | – | –
10 | COc1c(F)c(F)c(C(=O)/C=C2\Nc3ccccc3NC2=O)c(F)c1F | – | – | > 10 µM (inactive) | > 10 µM (inactive) | 7.33 µM (inactive) | > 10 µM (inactive) | – | – | 3.79 µM (inactive) | 9.51 µM (inactive) | – | 4.57 µM (inactive) | 2.25 µM (inactive) | 8.38 µM (inactive) | – | – | > 10 µM (inactive) | – | 7.57 µM (inactive)
11 | Clc1cc(Cl)ncn1 | – | > 100 µM (inactive) | > 100 µM (inactive) | > 100 µM (inactive) | > 100 µM (inactive) | > 100 µM (inactive) | > 100 µM (inactive) | > 100 µM (inactive) | > 100 µM (inactive) | > 100 µM (inactive) | > 100 µM (inactive) | > 100 µM (inactive) | > 100 µM (inactive) | > 100 µM (inactive) | > 100 µM (inactive) | > 100 µM (inactive) | > 100 µM (inactive) | > 100 µM (inactive) | > 100 µM (inactive)
12 | Cc1ccc2nc(NC(=O)C(=O)C(C#N)c3nc4ccccc4s3)sc2c1 (stereo not given) | 19.5 µM (inactive) | 42.3 µM (inactive) | 42.2 µM (inactive) | 79.8 µM (inactive) | 17.8 µM (inactive) | 33.8 µM (inactive) | 25.1 µM (inactive) | 34 µM (inactive) | 30.4 µM (inactive) | 31.5 µM (inactive) | 22.3 µM (inactive) | 55.8 µM (inactive) | 40.6 µM (inactive) | 55.1 µM (inactive) | 39.8 µM (inactive) | – | – | – | –
13 | CN(C)CC1CC/C(=C\c2ccc(Cl)cc2)C1=O (stereo not given) | 13.5 µM (inactive) | 12.6 µM (inactive) | 3.33 µM (inactive) | 4.69 µM (inactive) | 14.6 µM (inactive) | 10.1 µM (inactive) | 19.9 µM (inactive) | 17.4 µM (inactive) | 3.58 µM (inactive) | 3.16 µM (inactive) | 13.7 µM (inactive) | 15.7 µM (inactive) | 14.8 µM (inactive) | 2.61 µM (inactive) | 16.6 µM (inactive) | – | – | 3.24 µM (inactive) | –
14 | Cc1ccccc1/C=C/c1csnn1 | > 100 µM (inactive) | > 100 µM (inactive) | > 100 µM (inactive) | > 100 µM (inactive) | > 100 µM (inactive) | > 100 µM (inactive) | > 100 µM (inactive) | > 47.3 µM (inactive) | > 100 µM (inactive) | > 100 µM (inactive) | > 100 µM (inactive) | > 100 µM (inactive) | > 100 µM (inactive) | > 56.4 µM (inactive) | > 100 µM (inactive) | – | – | – | –
15 | CSC(=O)C[C@@]12O[C@@H]([C@@H](C)C3CCC4[C@@H]5C(O)CC6=CC(=O)C=C[C@]6(C)C5CC[C@@]43C)C[C@](C)(O1)C(C)(C)O2 (stereo not given in full) | 16.4 µM (inactive) | – | 18.6 µM (inactive) | 26.2 µM (inactive) | 16.1 µM (inactive) | 16.3 µM (inactive) | 22.3 µM (inactive) | 19.1 µM (inactive) | 17.8 µM (inactive) | 11.6 µM (inactive) | 16.3 µM (inactive) | 16.6 µM (inactive) | – | 17.3 µM (inactive) | 12.3 µM (inactive) | – | – | – | –
16 | CC(=O)O[C@@H]1CC(C)C2CC2C2=C(C(O)OC2O)[C@@H]1C(C)CCC=C(C)C (stereo not given in full) | 35.7 µM (inactive) | 31.7 µM (inactive) | 26.4 µM (inactive) | 20.8 µM (inactive) | 25.1 µM (inactive) | 31 µM (inactive) | 20.1 µM (inactive) | 20 µM (inactive) | 27 µM (inactive) | 17.3 µM (inactive) | 18.9 µM (inactive) | – | 26.9 µM (inactive) | 23 µM (inactive) | 22.2 µM (inactive) | – | – | – | –
17 | COC(=O)C1=Cc2cc(OC)c(OC)c(OC)c2[C@H](c2cc(OC)c(OC)c(OC)c2)C1C(=O)OC (stereo not given in full) | > 100 µM (inactive) | > 100 µM (inactive) | > 100 µM (inactive) | > 100 µM (inactive) | > 100 µM (inactive) | > 100 µM (inactive) | > 100 µM (inactive) | > 100 µM (inactive) | > 100 µM (inactive) | > 100 µM (inactive) | > 100 µM (inactive) | > 100 µM (inactive) | > 100 µM (inactive) | > 100 µM (inactive) | > 100 µM (inactive) | – | – | – | –
